From patent US9211325B2, “Peptide adjuvants” (priority 2008, dated 2015)
“Also recorded” adds a separate entry of the source.

System: H5N1 A\Hanoi\30408\2005
Set-up: species or system BALB/c mice
Conditions: mouse, in vivo

KWCEC (Short peptide sequence not known to occur in nature) [5mer4]
clinical signs of disease: no clinical signs of disease | survival: 90% | survival (protected from death): 50% | weight loss: minimal weight loss; also recorded: no statistically significant weight loss
